The values below come from patent US12252524B2, “GIP/GLP1 co-agonist compounds” (Eli Lilly and Company, priority 2018, dated 2025).

One assay has as its target human GLP-1R (Homo sapiens, UniProt P43220). As to the kind of experiment: [125I]-GLP-1 binding (SPA), human GLP-1 receptor. Details: expressed in transfected cells; crude membranes. As to conditions: read-out: hGLP1R Ki, (nM) (SEM, n). The method in brief:
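Assay buffer: HEPES 25 mM, pH 7.4, CaCl2 2.5 mM, MgCl2 1 mM, with EDTA-free protease inhibitors. Receptor came from crude cell membranes prepared by homogenization and centrifugation at 4° C. IC50s came from four-parameter fits (maximum, minimum, IC50, Hill slope) and were expressed as Ki geometric means with SEM.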

Assay [1] concerns the target human GLP-1 receptor (GLP-1R) (Homo sapiens, UniProt P43220). As to the kind of experiment: cAMP pharmacological functional assay in presence of casein, hGLP-1R. The format is cell-based. As to conditions: HEK293 cells expressing hGLP-1R, 0.1% Casein, geometric mean; read-out: hGLP1R cAMP Rel EC50 nM (SEM, n).
In assay [2] the target is T1, gastric inhibitory peptide receptor (GIPR) (Homo sapiens, UniProt P48546).
T1 sequence (P48546 22-466): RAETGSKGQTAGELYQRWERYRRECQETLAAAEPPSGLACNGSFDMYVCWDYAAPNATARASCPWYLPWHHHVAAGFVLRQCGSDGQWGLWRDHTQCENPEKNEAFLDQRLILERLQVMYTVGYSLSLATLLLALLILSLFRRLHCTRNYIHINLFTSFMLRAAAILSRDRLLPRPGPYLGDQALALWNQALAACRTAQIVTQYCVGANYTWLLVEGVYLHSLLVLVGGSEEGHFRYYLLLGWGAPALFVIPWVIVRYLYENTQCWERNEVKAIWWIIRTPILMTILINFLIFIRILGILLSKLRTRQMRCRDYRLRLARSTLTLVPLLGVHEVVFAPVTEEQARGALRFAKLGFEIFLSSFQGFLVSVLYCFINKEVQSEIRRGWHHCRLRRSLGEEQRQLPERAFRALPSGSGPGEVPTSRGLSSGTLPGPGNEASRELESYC
As to the kind of experiment: cAMP pharmacological functional assay in presence of casein, hGIPR. The following applies: HEK293 cells expressing hGIPR, 0.1% Casein, geometric mean; read-out: hGIPR cAMP Rel EC50 nM (SEM, n). The format is cell-based.

The target in another assay is T2, human GIP receptor (Homo sapiens, UniProt P48546).
T2 construct: expressed in transfected cells; crude membranes
T2 sequence (P48546 22-466): T1 sequence (P48546 22-466)
As to the kind of experiment: [125I]-GIP binding (SPA), human GIP receptor. As to conditions: read-out: hGIPR Ki, nM (SEM, n).

In a further assay the target is T3, human Gcg receptor (Homo sapiens, UniProt P47871).
T3 construct: expressed in transfected cells; crude membranes
As to the kind of experiment: [125I]-Glucagon binding (SPA), human Gcg receptor. The following applies: read-out: hGLcgR Ki, nM (SEM, n). The method in brief:
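Cell pellets were lysed in hypotonic Tris buffer, pH 7.5, homogenized, and spun at low then high speed to give crude membranes. Ki was derived from the fitted IC50.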

Numbered stars: 1 amine (or outer) side, 2 acyl side, 3 side chain; on linkers, the order of the positions; unused ones are H or OH. Square brackets hold non-standard residues; d marks the D form. Side chains are listed from the residue outwards. Peptide text beside a SMILES is read from it. * marks the point of attachment. C20 diacid = O=C(O)CCCCCCCCCCCCCCCCCCC(=O)*; C18 diacid = O=C(O)CCCCCCCCCCCCCCCCC(=O)*; αMePhe(2-F) = C[C@](N)(Cc1ccccc1F)C(=O)O; γGlu = O=C(O)[C@H](CCC(=O)[*:2])N[*:1]; αMeY = C[C@](N)(Cc1ccc(O)cc1)C(=O)O; αMeF = C[C@](N)(Cc1ccccc1)C(=O)O; αMeL = CC(C)C[C@](C)(N)C(=O)O; Orn = NCCC[C@H](N)C(=O)O; AEEA = NCCOCCOCC(=O)O; Aib = CC(C)(N)C(=O)O

Broadly, the Ki is the dissociation constant of the complex between target and ligand, obtained from inhibition or displacement. For orientation: EC50 means the midpoint of the concentration-response curve.

T3 sequence (P47871 26-477): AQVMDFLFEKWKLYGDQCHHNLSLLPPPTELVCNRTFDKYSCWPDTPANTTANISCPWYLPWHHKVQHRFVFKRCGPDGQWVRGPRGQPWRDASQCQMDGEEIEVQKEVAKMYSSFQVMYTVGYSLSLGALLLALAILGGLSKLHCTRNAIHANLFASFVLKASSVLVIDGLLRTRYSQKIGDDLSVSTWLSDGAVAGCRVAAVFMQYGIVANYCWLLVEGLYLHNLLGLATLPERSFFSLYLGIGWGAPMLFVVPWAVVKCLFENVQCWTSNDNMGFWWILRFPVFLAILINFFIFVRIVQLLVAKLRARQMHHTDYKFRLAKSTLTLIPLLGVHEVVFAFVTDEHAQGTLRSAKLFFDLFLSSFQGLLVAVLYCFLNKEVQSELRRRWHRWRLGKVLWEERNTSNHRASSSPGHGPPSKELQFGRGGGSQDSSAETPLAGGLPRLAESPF
human GLP-1R, sequence (P43220 24-463): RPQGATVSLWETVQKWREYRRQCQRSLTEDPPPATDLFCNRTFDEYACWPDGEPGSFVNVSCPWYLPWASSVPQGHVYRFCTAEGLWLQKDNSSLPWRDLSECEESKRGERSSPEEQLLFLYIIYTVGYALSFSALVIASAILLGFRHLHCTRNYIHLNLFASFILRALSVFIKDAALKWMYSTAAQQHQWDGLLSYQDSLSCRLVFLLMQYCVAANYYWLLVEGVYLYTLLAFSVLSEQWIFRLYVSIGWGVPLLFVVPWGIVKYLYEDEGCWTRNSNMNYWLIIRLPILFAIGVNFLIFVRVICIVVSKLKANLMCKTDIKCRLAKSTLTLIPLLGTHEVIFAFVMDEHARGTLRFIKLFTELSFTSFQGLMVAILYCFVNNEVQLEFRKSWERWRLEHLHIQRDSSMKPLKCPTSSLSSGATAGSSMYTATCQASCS
human GLP-1 receptor (GLP-1R), sequence (P43220 24-463): as above

As to `CC[C@H](C)[C@H](NC(=O)[C@H](CCCCN)NC(=O)[C@H](CC(=O)O)NC(=O)[C@H](CC(C)C)NC(=O)[C@H](CC(C)C)NC(=O)[C@@H](NC(=O)[C@H](CO)NC(=O)[C@H](Cc1ccc(O)cc1)NC(=O)[C@H](CC(=O)O)NC(=O)[C@H](CO)NC(=O)[C@@H](NC(=O)[C@H](Cc1ccccc1)NC(=O)[C@@H](NC(=O)CNC(=O)[C@H](CCC(=O)O)NC(=O)C(C)(C)NC(=O)[C@@H](N)Cc1ccc(O)cc1)[C@@H](C)O)[C@@H](C)O)[C@@H](C)CC)C(=O)N[C@@H](C)C(=O)N[C@@H](CCC(N)=O)C(=O)NC(C)(C)C(=O)N[C@@H](C)C(=O)N[C@@H](Cc1ccccc1)C(=O)N[C@H](C(=O)N[C@@H](CCC(=O)O)C(=O)N[C@@H](Cc1ccc(O)cc1)C(=O)N[C@@H](CC(C)C)C(=O)N[C@H](C(=O)N[C@@H](CCC(=O)O)C(=O)NCC(=O)N[C@@H](CCCCNC(=O)COCCOCCNC(=O)COCCOCCNC(=O)CC[C@H](NC(=O)CCCCCCCCCCCCCCCCCCC(=O)O)C(=O)O)C(=O)N1CCC[C@H]1C(=O)N[C@@H](CO)C(=O)N[C@@H](CO)C(=O)NCC(=O)N[C@@H](C)C(=O)N1CCC[C@H]1C(=O)N1CCC[C@H]1C(=O)N1CCC[C@H]1C(=O)N[C@@H](CO)C(N)=O)[C@@H](C)CC)[C@@H](C)CC` [Example 39] (H-Y[Aib]EGTFTSDYSILLDKIAQ[Aib]AFIEYLIEGK([AEEA-AEEA-γGlu-C20 diacid])PSSGAPPPS-NH2), the inhibition constant Ki at human GLP-1R is 16.8 nM; on human GIP receptor, 0.0499 nM; on human Gcg receptor it was 161 nM. For the same compound, the EC50 stood at 1.92 nM in assay [1] and 0.133 nM in assay [2].

As for `CC[C@H](C)[C@H](NC(=O)[C@H](CC(C)C)NC(=O)[C@](C)(Cc1ccc(O)cc1)NC(=O)[C@@H](CCC(=O)O)NC(=O)[C@@H](NC(=O)[C@H](Cc1ccccc1)NC(=O)[C@H](C)NC(=O)C(C)(C)NC(=O)[C@H](CCC(N)=O)NC(=O)[C@H](C)NC(=O)[C@H](CCCCNC(=O)COCCOCCNC(=O)COCCOCCNC(=O)CC[C@H](NC(=O)CCCCCCCCCCCCCCCCC(=O)O)C(=O)O)NC(=O)[C@H](CCCN)NC(=O)[C@H](CC(=O)O)NC(=O)[C@H](CC(C)C)NC(=O)[C@](C)(CC(C)C)NC(=O)[C@@H](NC(=O)[C@H](CO)NC(=O)[C@@H](NC(=O)[C@H](CC(=O)O)NC(=O)[C@H](CO)NC(=O)[C@@H](NC(=O)[C@](C)(Cc1ccccc1F)NC(=O)[C@@H](NC(=O)CNC(=O)[C@H](CCC(=O)O)NC(=O)C(C)(C)NC(=O)[C@@H](N)Cc1ccc(O)cc1)[C@@H](C)O)[C@@H](C)O)C(C)C)[C@@H](C)CC)[C@@H](C)CC)C(=O)N[C@@H](CCC(=O)O)C(=O)NCC(=O)NCC(=O)N1CCC[C@H]1C(=O)N[C@@H](CO)C(=O)N[C@@H](CO)C(=O)NCC(=O)N[C@@H](C)C(=O)N1CCC[C@H]1C(=O)N1CCC[C@H]1C(=O)N1CCC[C@H]1C(=O)N[C@@H](CO)C(N)=O` [Example 242] (H-Y[Aib]EGT[αMePhe(2-F)]TSDVSI[αMeL]LD[Orn]K([AEEA-AEEA-γGlu-C18 diacid])AQ[Aib]AFI[dE][αMeY]LIEGGPSSGAPPPS-NH2), the results for the Ki at human GLP-1R, at human GIP receptor and at human Gcg receptor were 0.853 nM, 0.0604 nM and 95.9 nM, respectively. Further, the EC50 came out at 0.0164 nM in assay [1] and 0.0333 nM in assay [2].

For the compound `CC[C@H](C)[C@H](NC(=O)[C@H](CC(C)C)NC(=O)[C@H](Cc1ccc(O)cc1)NC(=O)[C@H](CCC(=O)O)NC(=O)[C@@H](NC(=O)[C@H](Cc1ccccc1)NC(=O)[C@H](C)NC(=O)C(C)(C)NC(=O)[C@H](CCC(N)=O)NC(=O)[C@H](C)NC(=O)[C@H](CCCCNC(=O)COCCOCCNC(=O)COCCOCCNC(=O)CC[C@H](NC(=O)CCCCCCCCCCCCCCCCCCC(=O)O)C(=O)O)NC(=O)[C@H](CCCCN)NC(=O)[C@H](CC(=O)O)NC(=O)[C@H](CC(C)C)NC(=O)[C@H](CC(C)C)NC(=O)[C@@H](NC(=O)[C@H](CO)NC(=O)[C@H](Cc1ccc(O)cc1)NC(=O)[C@H](CC(=O)O)NC(=O)[C@H](CO)NC(=O)[C@@H](NC(=O)[C@H](Cc1ccccc1)NC(=O)[C@@H](NC(=O)CNC(=O)[C@H](CCC(=O)O)NC(=O)[C@@H]1CCCN1C(=O)[C@@H](N)Cc1ccc(O)cc1)[C@@H](C)O)[C@@H](C)O)[C@@H](C)CC)[C@@H](C)CC)C(=O)N[C@@H](CCC(=O)O)C(=O)NCC(=O)NCC(=O)N1CCC[C@H]1C(=O)N[C@@H](CO)C(=O)N[C@@H](CO)C(=O)NCC(=O)N[C@@H](C)C(=O)N1CCC[C@H]1C(=O)N1CCC[C@H]1C(=O)N1CCC[C@H]1C(=O)N[C@@H](CO)C(N)=O` [Example 88] (H-YPEGTFTSDYSILLDKK([AEEA-AEEA-γGlu-C20 diacid])AQ[Aib]AFIEYLIEGGPSSGAPPPS-NH2), the values for the Ki at human GLP-1R, at human GIP receptor and at human Gcg receptor were 4.24 nM, 0.0717 nM and 545 nM, respectively. Also, the EC50 in assay [1] was 0.64 nM; in assay [2], 0.475 nM.

Take `CC[C@H](C)[C@H](NC(=O)[C@H](CC(C)C)NC(=O)[C@H](Cc1ccc(O)cc1)NC(=O)[C@H](CCC(=O)O)NC(=O)[C@@H](NC(=O)[C@H](Cc1ccccc1)NC(=O)[C@H](C)NC(=O)C(C)(C)NC(=O)[C@H](CCC(N)=O)NC(=O)[C@H](C)NC(=O)[C@H](CCCCNC(=O)COCCOCCNC(=O)COCCOCCNC(=O)CC[C@H](NC(=O)CCCCCCCCCCCCCCCCCCC(=O)O)C(=O)O)NC(=O)[C@H](CCC(=O)O)NC(=O)[C@H](CC(=O)O)NC(=O)[C@H](CC(C)C)NC(=O)[C@](C)(CC(C)C)NC(=O)[C@@H](NC(=O)[C@H](CO)NC(=O)[C@H](Cc1ccc(O)cc1)NC(=O)[C@H](CC(=O)O)NC(=O)[C@H](CO)NC(=O)[C@@H](NC(=O)[C@](C)(Cc1ccccc1)NC(=O)[C@@H](NC(=O)CNC(=O)[C@H](CCC(=O)O)NC(=O)C(C)(C)NC(=O)[C@@H](N)Cc1ccc(O)cc1)[C@@H](C)O)[C@@H](C)O)[C@@H](C)CC)[C@@H](C)CC)C(=O)N[C@@H](CCC(=O)O)C(=O)NCC(=O)NCC(N)=O` [Example 100] (H-Y[Aib]EGT[αMeF]TSDYSI[αMeL]LDEK([AEEA-AEEA-γGlu-C20 diacid])AQ[Aib]AFIEYLIEGG-NH2; N-terminus assumed): the Ki on human GLP-1R worked out at 4.13 nM; on human GIP receptor it was 0.115 nM; on human Gcg receptor it was 44 nM. Besides, the EC50 came to 0.079 nM in assay [1] and 0.12 nM in assay [2].

For the compound `CC[C@H](C)[C@H](NC(=O)[C@H](CCCCN)NC(=O)[C@H](CC(=O)O)NC(=O)[C@H](CC(C)C)NC(=O)[C@H](CC(C)C)NC(=O)[C@@H](NC(=O)[C@H](CO)NC(=O)[C@H](Cc1ccc(O)cc1)NC(=O)[C@H](CC(=O)O)NC(=O)[C@H](CO)NC(=O)[C@@H](NC(=O)[C@H](Cc1ccccc1)NC(=O)[C@@H](NC(=O)CNC(=O)[C@H](CCC(=O)O)NC(=O)C(C)(C)NC(=O)[C@@H](N)Cc1ccc(O)cc1)[C@@H](C)O)[C@@H](C)O)[C@@H](C)CC)C(=O)N[C@@H](C)C(=O)N[C@@H](CCC(N)=O)C(=O)NC(C)(C)C(=O)N[C@@H](C)C(=O)N[C@@H](Cc1ccccc1)C(=O)N[C@H](C(=O)N[C@@H](CCC(=O)O)C(=O)N[C@@H](Cc1ccc(O)cc1)C(=O)N[C@@H](CC(C)C)C(=O)N[C@H](C(=O)N[C@@H](CCC(=O)O)C(=O)NCC(=O)NCC(=O)N1CCC[C@H]1C(=O)N[C@@H](CO)C(=O)N[C@@H](CO)C(=O)NCC(=O)N[C@@H](C)C(=O)N1CCC[C@H]1C(=O)N[C@@H](CCCCNC(=O)COCCOCCNC(=O)COCCOCCNC(=O)CC[C@H](NC(=O)CCCCCCCCCCCCCCCCCCC(=O)O)C(=O)O)C(=O)N1CCC[C@H]1C(=O)N[C@@H](CO)C(N)=O)[C@@H](C)CC)[C@@H](C)CC` [Example 46] (H-Y[Aib]EGTFTSDYSILLDKIAQ[Aib]AFIEYLIEGGPSSGAPK([AEEA-AEEA-γGlu-C20 diacid])PS-NH2), the results for the Ki on human GLP-1R, at human GIP receptor and at human Gcg receptor were 13.4 nM, 0.0852 nM and 133 nM, respectively. Also, the EC50 stood at 0.687 nM in assay [1] and 0.172 nM in assay [2].
